Read-outs that look alike come from different tables or passages of the source.
Key:
Experiment in all cases: Glasshouse assay for herbicidal activity (pre- and post-emergence), percentage phytotoxicity
Assay type in all cases: in vivo
Avena fatua (AVEFA) = conditions: Avena fatua
Method in brief: (§1)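 Herbicide was applied to potted plants sown in standard soil, one day after sowing for PRE and after about 12 days for POST. Visual percentage damage ratings followed at 15 DAA (POST) and 20 DAA (PRE).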

[1] = tested on: Alopecurus myosuroides (ALOMY); conditions: Alopecurus myosuroides
Method in brief: as §1

[2] = tested on: Echinochloa crus-galli (ECHCG); conditions: Echinochloa crus-galli
Method in brief: as §1

Lolium perenne (LOLPE) = conditions: Lolium perenne
Method in brief: as §1

[3] = post-emergence, 360 h, Rate 250 g/ha, post-emergence, assessed visually 15 DAA, 100%=total damage, 0%=no damage, read-out: Post-emergence herbicidal activity (percentage phytotoxicity) AVEFA POST
[4] = pre-emergence, 480 h, Rate 250 g/ha, pre-emergence, assessed visually 20 DAA, 100%=total damage, 0%=no damage, read-out: Pre-emergence herbicidal activity (percentage phytotoxicity) AVEFA PRE
[5] = post-emergence, 360 h, Rate 250 g/ha, post-emergence, assessed visually 15 DAA, 100%=total damage, 0%=no damage, read-out: Post-emergence herbicidal activity (percentage phytotoxicity) ALOMY POST
[6] = pre-emergence, 480 h, Rate 250 g/ha, pre-emergence, assessed visually 20 DAA, 100%=total damage, 0%=no damage, read-out: Pre-emergence herbicidal activity (percentage phytotoxicity) ALOMY PRE
[7] = post-emergence, 360 h, Rate 250 g/ha, post-emergence, assessed visually 15 DAA, 100%=total damage, 0%=no damage, read-out: Post-emergence herbicidal activity (percentage phytotoxicity) ECHCG POST
[8] = pre-emergence, 480 h, Rate 250 g/ha, pre-emergence, assessed visually 20 DAA, 100%=total damage, 0%=no damage, read-out: Pre-emergence herbicidal activity (percentage phytotoxicity) ECHCG PRE
[9] = post-emergence, 360 h, Rate 250 g/ha, post-emergence, assessed visually 15 DAA, 100%=total damage, 0%=no damage, read-out: Post-emergence herbicidal activity (percentage phytotoxicity) LOLPE POST
[10] = pre-emergence, 480 h, Rate 250 g/ha, pre-emergence, assessed visually 20 DAA, 100%=total damage, 0%=no damage, read-out: Pre-emergence herbicidal activity (percentage phytotoxicity) LOLPE PRE

Compound: C#CC(C)N(C)C(=O)CC1CC(=O)C(c2c(C)cc(C)cc2C)C1=O (single isomer, unassigned) [Compound A183]
- pest or weed control at 250 g/ha (Avena fatua (AVEFA); post-emergence, 360 h, post-emergence, 250 g/ha, 15 DAA, visual score (100%=total damage; 0%=no damage), read-out: AVEFA POST herbicidal activity (percentage phytotoxicity)): 70%
- pest or weed control at 250 g/ha (Avena fatua (AVEFA); pre-emergence, 480 h, pre-emergence, 250 g/ha, 20 DAA, visual score (100%=total damage; 0%=no damage), read-out: AVEFA PRE herbicidal activity (percentage phytotoxicity)): 0%
- pest or weed control at 250 g/ha ([1]; post-emergence, 360 h, post-emergence, 250 g/ha, 15 DAA, visual score (100%=total damage; 0%=no damage), read-out: ALOMY POST herbicidal activity (percentage phytotoxicity)): 70%
- pest or weed control at 250 g/ha ([1]; pre-emergence, 480 h, pre-emergence, 250 g/ha, 20 DAA, visual score (100%=total damage; 0%=no damage), read-out: ALOMY PRE herbicidal activity (percentage phytotoxicity)): 50%
- pest or weed control at 250 g/ha ([2]; post-emergence, 360 h, post-emergence, 250 g/ha, 15 DAA, visual score (100%=total damage; 0%=no damage), read-out: ECHCG POST herbicidal activity (percentage phytotoxicity)): 80%
- pest or weed control at 250 g/ha ([2]; pre-emergence, 480 h, pre-emergence, 250 g/ha, 20 DAA, visual score (100%=total damage; 0%=no damage), read-out: ECHCG PRE herbicidal activity (percentage phytotoxicity)): 80%
- pest or weed control at 250 g/ha (Lolium perenne (LOLPE); post-emergence, 360 h, post-emergence, 250 g/ha, 15 DAA, visual score (100%=total damage; 0%=no damage), read-out: LOLPE POST herbicidal activity (percentage phytotoxicity)): 70%
- pest or weed control at 250 g/ha (Lolium perenne (LOLPE); pre-emergence, 480 h, pre-emergence, 250 g/ha, 20 DAA, visual score (100%=total damage; 0%=no damage), read-out: LOLPE PRE herbicidal activity (percentage phytotoxicity)): 90%

Compound: Cc1cc(Br)cc(C)c1C1C(=O)CC(CC(=O)NCc2cccc(F)c2)C1=O (stereo not shown) [Compound B130]
- pest or weed control at 250 g/ha (Avena fatua (AVEFA); post-emergence, 360 h, 250 g/ha, post-emergence, 15 DAA, visual assessment (100%=total damage, 0%=no damage), read-out: Post-emergence herbicidal activity (percentage phytotoxicity) AVEFA POST): 90%
- pest or weed control at 250 g/ha (Avena fatua (AVEFA); pre-emergence, 480 h, 250 g/ha, pre-emergence, 20 DAA, visual assessment (100%=total damage, 0%=no damage), read-out: Pre-emergence herbicidal activity (percentage phytotoxicity) AVEFA PRE): 40%
- pest or weed control at 250 g/ha ([1]; post-emergence, 360 h, 250 g/ha, post-emergence, 15 DAA, visual assessment (100%=total damage, 0%=no damage), read-out: Post-emergence herbicidal activity (percentage phytotoxicity) ALOMY POST): 90%
- pest or weed control at 250 g/ha ([1]; pre-emergence, 480 h, 250 g/ha, pre-emergence, 20 DAA, visual assessment (100%=total damage, 0%=no damage), read-out: Pre-emergence herbicidal activity (percentage phytotoxicity) ALOMY PRE): 80%
- pest or weed control at 250 g/ha ([2]; post-emergence, 360 h, 250 g/ha, post-emergence, 15 DAA, visual assessment (100%=total damage, 0%=no damage), read-out: Post-emergence herbicidal activity (percentage phytotoxicity) ECHCG POST): 90%
- pest or weed control at 250 g/ha ([2]; pre-emergence, 480 h, 250 g/ha, pre-emergence, 20 DAA, visual assessment (100%=total damage, 0%=no damage), read-out: Pre-emergence herbicidal activity (percentage phytotoxicity) ECHCG PRE): 70%
- pest or weed control at 250 g/ha (Lolium perenne (LOLPE); post-emergence, 360 h, 250 g/ha, post-emergence, 15 DAA, visual assessment (100%=total damage, 0%=no damage), read-out: Post-emergence herbicidal activity (percentage phytotoxicity) LOLPE POST): 100%
- pest or weed control at 250 g/ha (Lolium perenne (LOLPE); pre-emergence, 480 h, 250 g/ha, pre-emergence, 20 DAA, visual assessment (100%=total damage, 0%=no damage), read-out: Pre-emergence herbicidal activity (percentage phytotoxicity) LOLPE PRE): 80%

Compound: CC#Cc1cc(C)c(C2C(=O)CC(CC(=O)NC(C)(C)CC)C2=O)c(CC)c1 (stereo not shown) [Compound A50]
- pest or weed control at 250 g/ha (Avena fatua (AVEFA); [3]): 100%
- pest or weed control at 250 g/ha (Avena fatua (AVEFA); [4]): 100%
- pest or weed control at 250 g/ha [1, 5]: 100%
- pest or weed control at 250 g/ha [1, 6]: 100%
- pest or weed control at 250 g/ha [2, 7]: 100%
- pest or weed control at 250 g/ha [2, 8]: 90%
- pest or weed control at 250 g/ha (Lolium perenne (LOLPE); [9]): 100%
- pest or weed control at 250 g/ha (Lolium perenne (LOLPE); [10]): 100%

Compound: Cc1cc(-c2ncc(F)cc2Cl)cc(C)c1C1C(=O)CC(CC(=O)NCc2cccs2)C1=O (stereo not shown) [Compound A150]
- pest or weed control at 250 g/ha (Avena fatua (AVEFA); [3]): 90%
- pest or weed control at 250 g/ha (Avena fatua (AVEFA); [4]): 50%
- pest or weed control at 250 g/ha [1, 5]: 70%
- pest or weed control at 250 g/ha [1, 6]: 70%
- pest or weed control at 250 g/ha [2, 7]: 90%
- pest or weed control at 250 g/ha [2, 8]: 90%
- pest or weed control at 250 g/ha (Lolium perenne (LOLPE); [9]): 70%
- pest or weed control at 250 g/ha (Lolium perenne (LOLPE); [10]): 80%

Compound: CCc1cc(-n2cc(Cl)cn2)cc(C)c1C1C(=O)CC(CC(=O)N(C)CC)C1=O (stereo not shown) [Compound B238]
- pest or weed control at 250 g/ha (Avena fatua (AVEFA); post-emergence, 360 h, POST-emergence, rate 250 g/ha, visual score 15 DAA (100%=total damage, 0%=no damage), read-out: Post-emergence herbicidal activity (percentage phytotoxicity) AVEFA POST): 100%
- pest or weed control at 250 g/ha (Avena fatua (AVEFA); pre-emergence, 480 h, PRE-emergence, rate 250 g/ha, visual score 20 DAA (100%=total damage, 0%=no damage), read-out: Pre-emergence herbicidal activity (percentage phytotoxicity) AVEFA PRE): 100%
- pest or weed control at 250 g/ha ([1]; post-emergence, 360 h, POST-emergence, rate 250 g/ha, visual score 15 DAA (100%=total damage, 0%=no damage), read-out: Post-emergence herbicidal activity (percentage phytotoxicity) ALOMY POST): 100%
- pest or weed control at 250 g/ha ([1]; pre-emergence, 480 h, PRE-emergence, rate 250 g/ha, visual score 20 DAA (100%=total damage, 0%=no damage), read-out: Pre-emergence herbicidal activity (percentage phytotoxicity) ALOMY PRE): 100%
- pest or weed control at 250 g/ha ([2]; post-emergence, 360 h, POST-emergence, rate 250 g/ha, visual score 15 DAA (100%=total damage, 0%=no damage), read-out: Post-emergence herbicidal activity (percentage phytotoxicity) ECHCG POST): 100%
- pest or weed control at 250 g/ha ([2]; pre-emergence, 480 h, PRE-emergence, rate 250 g/ha, visual score 20 DAA (100%=total damage, 0%=no damage), read-out: Pre-emergence herbicidal activity (percentage phytotoxicity) ECHCG PRE): 100%
- pest or weed control at 250 g/ha (Lolium perenne (LOLPE); post-emergence, 360 h, POST-emergence, rate 250 g/ha, visual score 15 DAA (100%=total damage, 0%=no damage), read-out: Post-emergence herbicidal activity (percentage phytotoxicity) LOLPE POST): 100%
- pest or weed control at 250 g/ha (Lolium perenne (LOLPE); pre-emergence, 480 h, PRE-emergence, rate 250 g/ha, visual score 20 DAA (100%=total damage, 0%=no damage), read-out: Pre-emergence herbicidal activity (percentage phytotoxicity) LOLPE PRE): 100%

Reference: US10206394B2, “Herbicidal compounds” (Syngenta Participations AG, priority 2014, dated 2019)
